For assay [1], the target named is T1, KPC-2 β-lactamase (Klebsiella pneumoniae, UniProt Q9F663).
T1 construct: expressed as native untagged proteins; made in house; host or cells: E. coli BL21(DE3)
In words: β-lactamase enzyme inhibition assay (nitrocefin substrate), KPC-2. In kind it is biochemical. Summed up: (§1)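 IC50 values reflect a 50% drop in the initial rate of nitrocefin (100 μM final) hydrolysis, monitored at 486 nm. Inhibitor was preincubated with the purified native enzyme for 10 min at 37 °C in PBS pH 7.0.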

The test system of assay [2] is K. pneumoniae expressing the Class A Extended Spectrum Beta-Lactamase (ESBL) CTX-M-15. Put plainly: In vitro antibacterial assay of β-lactamase inhibition (broth microdilution MIC), K. pneumoniae CTX-M-15. The settings on record: in presence of Ceftazidime 8 μg/ml (Examples 1-56). In kind it is cell-based. Summed up:
(§2)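 Broth microdilution in cation-adjusted Mueller Hinton broth; strains pre-grown 3–5 h with 50 μg/mL ampicillin. Test compounds 2-fold serially diluted to a final 8–0.015 μg/mL alongside a β-lactam, CLSI inoculum. MIC read visually after 16–20 h at 37° C.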

The test system of assay [3] is E. cloacae expressing the Class C P99+. Put plainly: In vitro antibacterial assay of β-lactamase inhibition (broth microdilution MIC), E. cloacae P99+. In kind it is cell-based. The settings on record: in presence of Ceftazidime 8 μg/ml (Examples 1-56). Summed up: as §2
For orientation: In broth dilution the organism is exposed to a series of concentrations in liquid medium.

The target of assay [4] is T2, OXA-23 β-lactamase (Acinetobacter baumannii, UniProt Q9L4P2).
T2 construct: crude β-lactamase extracts were prepared from 20 ml overnight cultures; endogenous in cells; host or cells: Acinetobacter baumannii cells containing OXA-23 (crude freeze-thaw extract)
In words: β-lactamase enzyme inhibition assay (nitrocefin substrate), OXA-23 crude extract. The class given is biochemical. The settings on record: nitrocefin 100 μM, 37° C., PBS pH 7.0; read-out: OXA-23 IC50. Summed up: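 Crude enzyme came from freeze-thaw extracts of mid-log OXA-23-carrying A. baumannii grown in MH-II broth at 37° C. Inhibitors (100–0.005 μM in PBS pH 7.0) were preincubated with the enzyme for 10 min at 37° C, then 100 μM nitrocefin (final) was added and read kinetically at 486 nm for 10 min. IC50 was taken from initial hydrolysis rates relative to uninhibited controls.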

In assay [5] the test system is K. pneumoniae expressing the Class A carbapenemase KPC-2. In words: microbe, parasite or virus in culture. In kind it is cell-based. The settings on record: in presence of Ceftazidime 8 μg/ml (Examples 1-56). Summed up: as §2
For assay [6], the target named is T3, SHV-5 β-lactamase (Klebsiella pneumoniae, UniProt P0A3M1).
T3 construct: expressed as native untagged proteins; made in house; host or cells: E. coli BL21(DE3)
Put plainly: β-lactamase enzyme inhibition assay (nitrocefin substrate), SHV-5. In kind it is biochemical. Summed up:
as §1

Assay [7] deals with T4, p99 AmpC β-lactamase (Enterobacter cloacae, UniProt P05364).
T4 construct: expressed as native untagged proteins; made in house; host or cells: E. coli BL21(DE3)
Put plainly: β-lactamase enzyme inhibition assay (nitrocefin substrate), P99 AmpC. The settings on record: nitrocefin 100 μM, 37° C., PBS pH 7.0; read-out: P99 AmpC IC50. In kind it is biochemical. Summed up: as §1

Assay [8] concerns E. coli expressing the Class A ESBL SHV-5. In words: In vitro antibacterial assay of β-lactamase inhibition (broth microdilution MIC), E. coli SHV-5. The settings on record: in presence of Ceftazidime 8 μg/ml (Examples 1-56). The class given is cell-based. Summed up:
as §2

For assay [9], the target named is T5, CTX-M15 β-lactamase (Escherichia coli, UniProt Q9EXV5).
T5 construct: expressed as native untagged proteins; made in house; host or cells: E. coli BL21(DE3)
In words: β-lactamase enzyme inhibition assay (nitrocefin substrate), CTXM-15. The class given is biochemical. Summed up: as §1

Assay [10] concerns the target T6, VIM-2 metallo β-lactamase (Pseudomonas aeruginosa, UniProt Q9K2N0).
T6 construct: made in house
In words: β-lactamase enzyme inhibition assay (nitrocefin substrate), VIM-2. The class given is biochemical. The settings on record: nitrocefin 100 μM, 37° C., PBS pH 7.0; read-out: VIM-2 IC50. Summed up:
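VIM-2 was expressed untagged in E. coli BL21(DE3) and purified by two Q sepharose anion-exchange runs plus gel filtration to >90% purity. Compounds at 100–0.005 μM in PBS pH 7.0 were preincubated with enzyme for 10 min at 37° C, then nitrocefin was added at 100 μM final. Hydrolysis was followed kinetically at 486 nm for 10 min; IC50 is the concentration halving the initial rate relative to no-inhibitor wells.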

For assay [11], the system named is P. aeruginosa expressing the Class B metallo β-lactamase VIM-2. In words: In vitro antibacterial assay of β-lactamase inhibition (broth microdilution MIC), P. aeruginosa VIM-2. The class given is cell-based. The settings on record: in presence of Ceftazidime 16 μg/mL (Examples 1-56). Summed up:
as §2

pIC50: −log10 of the molar value. Structures can show the parent of a compound that is named as a salt.

T5 sequence (Q9EXV5 entry or part of it): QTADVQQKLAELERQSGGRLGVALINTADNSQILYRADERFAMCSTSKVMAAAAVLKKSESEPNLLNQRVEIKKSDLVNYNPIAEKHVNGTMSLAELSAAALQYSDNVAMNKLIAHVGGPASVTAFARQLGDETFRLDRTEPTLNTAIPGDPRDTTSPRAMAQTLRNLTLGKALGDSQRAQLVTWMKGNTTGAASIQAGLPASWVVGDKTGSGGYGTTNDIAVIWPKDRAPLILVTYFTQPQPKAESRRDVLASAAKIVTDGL
T4 sequence (P05364 21-381): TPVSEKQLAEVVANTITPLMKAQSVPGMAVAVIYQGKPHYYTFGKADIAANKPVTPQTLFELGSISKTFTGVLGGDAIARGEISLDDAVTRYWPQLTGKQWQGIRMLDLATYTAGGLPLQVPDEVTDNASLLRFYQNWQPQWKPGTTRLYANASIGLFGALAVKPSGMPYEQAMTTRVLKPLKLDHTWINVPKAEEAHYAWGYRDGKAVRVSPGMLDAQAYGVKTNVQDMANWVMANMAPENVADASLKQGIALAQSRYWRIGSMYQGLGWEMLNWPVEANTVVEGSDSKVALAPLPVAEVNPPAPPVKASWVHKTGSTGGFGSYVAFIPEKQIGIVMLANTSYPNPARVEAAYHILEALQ
T1 sequence (Q9F663 25-293 limits assumed): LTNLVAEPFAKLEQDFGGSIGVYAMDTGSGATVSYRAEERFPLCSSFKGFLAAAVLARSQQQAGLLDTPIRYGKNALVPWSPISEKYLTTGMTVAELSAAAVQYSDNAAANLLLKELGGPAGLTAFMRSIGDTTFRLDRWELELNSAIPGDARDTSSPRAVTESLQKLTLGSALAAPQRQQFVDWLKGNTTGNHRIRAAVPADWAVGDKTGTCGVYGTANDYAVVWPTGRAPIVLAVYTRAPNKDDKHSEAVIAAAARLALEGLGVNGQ
T2 sequence (Q9L4P2 18-273): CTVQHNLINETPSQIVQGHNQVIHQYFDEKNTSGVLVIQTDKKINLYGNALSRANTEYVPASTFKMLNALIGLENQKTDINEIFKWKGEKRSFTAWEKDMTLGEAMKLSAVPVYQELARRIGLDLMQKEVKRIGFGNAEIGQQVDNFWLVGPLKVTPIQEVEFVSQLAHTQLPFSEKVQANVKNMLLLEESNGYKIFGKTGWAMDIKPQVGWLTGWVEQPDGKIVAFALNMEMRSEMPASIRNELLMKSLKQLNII
T3 sequence (P0A3M1 22-286): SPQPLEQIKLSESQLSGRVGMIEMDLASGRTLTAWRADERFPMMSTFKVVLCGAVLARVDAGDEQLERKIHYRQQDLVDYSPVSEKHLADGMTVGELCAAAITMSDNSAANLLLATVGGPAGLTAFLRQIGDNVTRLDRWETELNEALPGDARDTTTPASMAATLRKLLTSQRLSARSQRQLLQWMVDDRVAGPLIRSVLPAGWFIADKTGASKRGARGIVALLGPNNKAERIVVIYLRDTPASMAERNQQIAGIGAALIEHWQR

Turning to `Cc1cc(NCc2cccc(C(=O)N[C@@H](Cc3cccc(C(=O)O)c3O)B(O)O)c2)no1` [Example 28, (1R)-[3-{(5-methyl-isoxazol-3-ylamino)-methyl}-benzoylamino]-(3-carboxy-2hydroxy)benzyl-methylboronic acid formate], the pIC50 in assay [1] is 8.40; in [4] it was 8.05; in assay [6], 7.82; in assay [7], 9.70; in assay [9] it was 9.15; in assay [10] it was 6.52. Also, the “MIC of example compound, K. pneumoniae CTX-M-15” value (from here on “MIC … K. pneumoniae CTX-M-15”) in assay [2] was determined as 4 µg/mL. Further, in [3], the “MIC of example compound, E. cloacae P99+” value was found to be 2 µg/mL. Besides, the “MIC of example compound, K. pneumoniae KPC-2” value (shortened to “MIC … K. pneumoniae KPC-2”) in [5] was determined as 2 µg/mL. In addition, in assay [8], the “MIC of example compound, E. coli SHV-5” value is 8 µg/mL. Besides, the “MIC of example compound, P. aeruginosa VIM-2” value (“MIC … P. aeruginosa VIM-2” for short) in assay [11] was greater than 8 µg/mL.

As for `Cl.Nc1nc(/C(=N/O)C(=O)N[C@@H](Cc2cccc(C(=O)O)c2O)B(O)O)cs1` [Example 49, 3-{2(R)-[2-(2-amino-thiazol-4-yl)-2(Z)-hydroxyimino-acetylamino]-2-borono-ethyl}-2-hydroxy-benzoic acid hydrochloride], the pIC50 in assay [1] was 7.47; in assay [4] it was 7.77; in assay [6], 8.40; in assay [7], 8.70; in assay [9], 7.96; in assay [10], 6.23. For the same compound, the “MIC … K. pneumoniae CTX-M-15” value in assay [2] is 2 µg/mL. Besides, the “MIC of example compound, E. cloacae P99+” value in assay [3] was 2 µg/mL. The “MIC … K. pneumoniae KPC-2” value in [5] worked out at 0.12 µg/mL. For the same compound, the “MIC of example compound, E. coli SHV-5” value in assay [8] stood at 2 µg/mL. Further, in assay [11], the “MIC … P. aeruginosa VIM-2” value was greater than 8 µg/mL.

For the compound `NCc1cccc(C(=O)N[C@@H](Cc2cccc(C(=O)O)c2O)B(O)O)c1` [Example 1, 2(R)-3-[2-(3-(Aminomethyl)benzoylamino)-2-borono-ethyl]-2-hydroxy-benzoic acid hydrochloride], the pIC50 is 7.70 in assay [1]; 7.19 in assay [4]; 6.19 in assay [6]; 9.00 in [7]; 8.52 in assay [9]; 6.82 in [10]. Also, the “MIC … K. pneumoniae CTX-M-15” value in [2] stood at 1 µg/mL. In assay [3], the “MIC of example compound, E. cloacae P99+” value came out at 0.25 µg/mL. In addition, the “MIC … K. pneumoniae KPC-2” value in assay [5] was determined as 0.125 µg/mL. Moreover, the “MIC of example compound, E. coli SHV-5” value in assay [8] came out at 4 µg/mL. Also, the “MIC … P. aeruginosa VIM-2” value in [11] worked out at 8 µg/mL.

As to `CNCc1ccc(CC(=O)N[C@@H](Cc2cccc(C(=O)O)c2O)B(O)O)cc1` [Example 33, (1R)-[2-(4-methylaminomethyl-phenyl)-acetylamino]-(3-carboxy-2hydroxy)benzyl-methylboronic acid formate], the pIC50 in assay [1] is 7.92; in assay [4], 6.42; in [6] it was 8.30; in assay [7] it was 8.15; in assay [9], 8.10; in assay [10], 6.47. In addition, in assay [2], the “MIC … K. pneumoniae CTX-M-15” value amounted to 0.12 µg/mL. In addition, the “MIC of example compound, E. cloacae P99+” value in [3] amounted to 0.25 µg/mL. For the same compound, the “MIC … K. pneumoniae KPC-2” value in [5] worked out at 0.06 µg/mL. Further, in [8], the “MIC of example compound, E. coli SHV-5” value came out at 0.5 µg/mL. Besides, the “MIC … P. aeruginosa VIM-2” value in [11] was greater than 8 µg/mL.

Regarding `O=C(N[C@@H](Cc1cccc(C(=O)O)c1O)B(O)O)c1cccc(CNc2nccs2)c1` [Example 31, (1R)-[3-(thiazol-2-ylaminomethyl)-benzoylamino]-(3-carboxy-2-hydroxy)benzyl-methylboronic acid], the pIC50 was 8.52 in assay [1]; 8.00 in assay [4]; 7.89 in assay [6]; 9.22 in assay [7]; 9.30 in assay [9]; 6.53 in assay [10]. Besides, the “MIC … K. pneumoniae CTX-M-15” value in [2] was found to be 4 µg/mL. Also, in [3], the “MIC of example compound, E. cloacae P99+” value stood at 2 µg/mL. Besides, the “MIC … K. pneumoniae KPC-2” value in assay [5] is 0.25 µg/mL. Also, in [8], the “MIC of example compound, E. coli SHV-5” value came to 8 µg/mL. Further, the “MIC … P. aeruginosa VIM-2” value in assay [11] is greater than 8 µg/mL.

Usually pIC50 stands for the IC50 on a negative log10 scale, so that one unit is a factor of ten.

The values above are taken from patent publication US20100292185A1, “BETA-LACTAMASE INHIBITORS” (priority 2009, published 2010).
